Data set [1] is described as follows: Aerobic stability of inoculated high moisture corn silage (1999 HMC field trials, PVC silos). As for the experimental part: High moisture corn was harvested by combine at 22 to 28% moisture. Harvested grain was processed with a roller mill with rollers set at a gap width of approximately 3 mm.
Inoculants were formulated to deliver the appropriate rate as give in Table 2. A 30 cc syringe fitted with a 16-gauge needle was used to apply the inoculants to the forage at a rate of 1 ml/lb. The inoculants were mixed with the forage by rolling on clean plastic.
For each treatment two 4″×14″ PVC silos with air infusion holes near the top and bottom of the silo were filled with 2.5 kg of forage. Experimental silos were fitted with rubber quick caps at each end, the top having a bunsen valve to allow gas to escape. The silos were then kept in an environmentally controlled room until opening.
Two pre-ensiled forage samples were taken while filling during each trial for pH and microbial analysis. Lactic acid bacteria (LAB) were enumerated on modified DeMann-Rogosa-Sharpe (MRS) agar and yeasts and molds on Sabouraud Dextrose agar. Dry matter (DM) was determined by drying to a constant weight for 72 hours at 55° C. in a forced air oven. Inoculum was plated on modified MRS agar. Silos were opened after approximately 60 days, emptied and mixed. Samples were taken for pH, DM, digestibility, and aerobic stability analyses.
Aerobic stabilty was determined by placing 500 g of silage into a plastic tub with holes in the lid and bottom, placing a temperature probe in the center of the silage mass and placing the tub into a styrofoam cooler (Honig, Das Wirtschaftseigene Futter (1975) 21:25-32). The coolers were then kept in a temperature-controlled room where the ambient temperature and silage temperature were recorded by a datalogger every three hours for one week. DM was determined as per the pre-ensiled samples. Dried samples from the DM determination were ground through a 4 mm Wiley Mill screen and scanned by near infrared spectroscopy (NIRS).

Data set [2] is described as follows: Aerobic stability of inoculated whole plant corn silage (WPCS fall field trials, PVC silos). The method, then: Whole plant corn forage was harvested at approximately 2/3 milk line with a 2-row pull type forage chopper. Theoretical chop length was […].
A 30 cc syringe fitted with a 16-gauge needle was used to apply the inoculants to the forage at a rate of 1 ml/lb. The inoculants were mixed with the forage by rolling on clean plastic.
For each treatment two 4″×14″ PVC silos with air infusion holes near the top and bottom of the silo were filed with 1123 g, 1173 g, 1271 g, 1144 g, 1459 g, 1278 g, 1207 g and 1097 g of forage. Experimental silos were fitted with rubber quick caps at each end, the top having a bunsen valve to allow gas to escape. The silos were then weighed for dry matter recovery. After filing, the silos were kept in an environmentally controlled room until opening and air infused for 24 hours on day 28.
Three pre-ensiled forage samples were taken while filling during each trial for pH and microbial analysis. Lactic acid bacteria (LAB) were enumerated on modified MRS agar and yeasts and molds on Sabouraud Dextrose agar. Dry matter was determined by drying to a constant weight for 72 hours at 55° C. in a forced air oven. Inoculum was plated on modified MRS agar. Silos were opened after 50 days emptied and mixed. Samples were taken for pH, DM and aerobic stability analyses.
Aerobic stability was determined by placing 100 g of dry matter of silage into a plastic tub with holes in the lid and bottom, placing a temperature probe in the center of the silage mass and placing the tub into a styrofoam cooler (Honig, Das Wirtschaftseigene Futter (1975) 21:25-32). The coolers were then kept in a temperature-controlled room where the ambient temperature and silage temperature were recorded by a datalogger every three hours for one week. DM was determined as per the pre-ensiled samples. Frozen samples of selected samples were submitted for VFA analysis according to standard protocols.

As to `CCC(=O)O` [PROP, Propionic acid], the “improvement of aerobic stability” value in data set [1] stood at 94 h. In data set [1], the “improvement of aerobic stability (in words)” value is on record as “effective in all trials”. In addition, the Loss in data set [1] (number of HMC field trials with 24 hour decrease in stability compared to control) was determined as 0; in data set [2] (number of WPCS trials (of 8) with 24 hour decrease in stability compared to control), 2. The Win in data set [1] (number of HMC field trials with 24 hour increase in stability compared to control) amounted to 8; in data set [2] (number of WPCS trials (of 8) with 24 hour increase in stability compared to control) it was 3. Also, in data set [1] (number of HMC field trials with no difference from control), the “No Difference” value is given as 0. For the same molecule, the “No Effect” value in data set [2] (number of WPCS trials (of 8) with no effect) is 3.

For the origin of these results see patent US6403084B1, “Mixed cultures for improved fermentation and aerobic stability of silage” (Pioneer Hi-Bred International, Inc., priority 2000, dated 2002).
